Our source for the MIC values is patent US20260274892A1, “MACROCYCLIC BROAD SPECTRUM ANTIBIOTICS” (RQx Pharmaceuticals, Inc., priority 2017, published 2026).

Assay [1] deals with Methicillin Resistant Staphylococcus aureus strain USA 200. The assay can be described thus: Minimum inhibitory concentration (MIC), CLSI broth micro-dilution, S. aureus. The format is cell-based. As to conditions: Staphylococcus aureus, MRSA / USA200, MRSA USA 200, cation adjusted Mueller Hinton Broth + 0.002% Tween-80, 35° C., 22 hours. In a few lines: (§1)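 Antibacterial potency is measured as MIC by the CLSI broth dilution method. Bacteria at OD600 0.0005 in Tween-80-supplemented cation-adjusted Mueller Hinton broth face ten twofold compound dilutions for 22 h at 35° C.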

Assay [2] concerns Escherichia coli ATCC 25922. The assay is described as follows: Minimum inhibitory concentration (MIC), CLSI broth micro-dilution, E. coli. As to conditions: Escherichia coli, ATCC25922, 22 h. The format is cell-based. In a few lines:
as §1
A general note: In broth dilution the organism is exposed to a series of concentrations in liquid medium.

[3] abbreviates: Table 6, cation adjusted Mueller Hinton Broth + 0.002% Tween-80, 35° C.

SMILES strings stand for the structures.

In general, MIC refers to the smallest concentration in the dilution series that meets the test's criterion for growth inhibition. Regarding `Cc1cc(Oc2ccc(C(C)(C)C)cc2)cc(C)c1C(=O)N[C@@H](CCN)C(=O)N(C)[C@@H]1C(=O)N[C@@H](C)C(=O)N[C@H](C(=O)NCC#N)Cc2ccc(OCCN)c(c2)-c2cc1ccc2OCCN` (racemic) [Compound 375, rac-(8S,11S,14S)-3,18-bis(2-aminoethoxy)-N-(cyanomethyl)-11-methyl-14-[methyl-[rac-(2S)-4-amino-2-[[4-(4-tert-butylphenoxy)-2,6-dimethyl-benzoyl]amino]butanoyl]amino]-10,13-dioxo-9,12-diazatricyclo[13.3.1.12,6]icosa-1(18),2(20),3,5,15(19),16-hexaene-8-carboxamide], the MIC in assay [1] (Table 6) came out at 0.031 µM; in assay [2] (setting [3]), 0.5 µM.

With `Cc1nc(-c2ccc(OC3CCCCC3)cc2)nc(C)c1C(=O)N[C@@H](CO)C(=O)N(C)[C@@H]1C(=O)N[C@@H](C)C(=O)N[C@H](C(=O)NCC#N)Cc2ccc(OCCN)c(c2)-c2cc1ccc2OCCN` [Compound 507, (8S,11S,14S)-3,18-bis(2-aminoethoxy)-N-(cyanomethyl)-14-[[(2S)-2-[[2-[4-(cyclohexoxy)phenyl]-4,6-dimethyl-pyrimidine-5-carbonyl]amino]-3-hydroxy-propanoyl]-methyl-amino]-11-methyl-10,13-dioxo-9,12-diazatricyclo[13.3.1.12,6]icosa-1(18),2(20),3,5,15(19),16-hexaene-8-carboxamide], the MIC came out at 0.063 µM in assay [1] (Table 6) and 0.38 µM in assay [2] (setting [3]).

Consider `Cc1nc(-c2ccc3c(c2)CCC3(C)C)nc(C)c1C(=O)N[C@@H](CCN)C(=O)N(C)[C@@H]1C(=O)N[C@@H](C)C(=O)N[C@H](C(=O)O)Cc2ccc(OCCN)c(c2)-c2cc1ccc2OCCN` (racemic) [Compound 647, rac-(8S,11S,14S)-3,18-bis(2-aminoethoxy)-11-methyl-14-[methyl-[rac-(2S)-4-amino-2-[[2-(1,1-dimethylindan-5-yl)-4,6-dimethyl-pyrimidine-5-carbonyl]amino]butanoyl]amino]-10,13-dioxo-9,12-diazatricyclo [13.3.1.12,6]icosa-1(18),2(20),3,5,15(19), 16-hexaene-8-carboxylic acid], for which the MIC in assay [1] (Table 8) stood at 0.19 µM; in assay [2] (Table 8, cation adjusted Mueller Hinton Broth + 0.002% Tween-80, 35° C.), 0.25 µM.

With `CCCCCCc1ccc2nc(C)c(C(=O)N[C@@H](CCN)C(=O)N(C)[C@@H]3C(=O)N[C@@H](C)C(=O)N[C@H](C(=O)NCC#N)Cc4ccc(OCCN)c(c4)-c4cc3ccc4OCCN)c(C)c2c1` (racemic) [Compound 399, rac-(8S,11S,14S)-3,18-bis(2-aminoethoxy)-N-(cyanomethyl)-11-methyl-14-[methyl-[rac-(2S)-4-amino-2-[(6-hexyl-2,4-dimethyl-quinoline-3-carbonyl)amino]butanoyl]amino]-10,13-dioxo-9,12-diazatricyclo[13.3.1.12,6]icosa-1(18),2(20),3,5,15(19),16-hexaene-8-carboxamide], the figures for the MIC in assay [1] (Table 6) and in assay [2] (setting [3]) were 0.0078 µM and 0.5 µM, respectively.

As for `C[C@@H]1NC(=O)[C@@H](N(C)C(=O)[C@H](CCN)NC(=O)c2ccn(-c3ccc(C(C)(C)C)cc3)c(=O)c2)c2ccc(OCCN)c(c2)-c2cc(ccc2OCCN)C[C@@H](C(=O)NCC#N)NC1=O` (racemic) [Compound 383, rac-(8S,11S,14S)-3,18-bis(2-aminoethoxy)-N-(cyanomethyl)-11-methyl-14-[methyl-[rac-(2S)-4-amino-2-[[1-(4-tert-butylphenyl)-2-oxo-pyridine-4-carbonyl]amino]butanoyl]amino]-10,13-dioxo-9,12-diazatricyclo[13.3.1.12,6]icosa-1(18),2(20),3,5,15(19),16-hexaene-8-carboxamide], the results for the MIC in assay [1] (Table 6) and in assay [2] (setting [3]) were 0.1 µM and 1.1 µM, respectively.

Take `Cc1nc(-c2ccc(C(C)(C)C)cc2)ccc1C(=O)N[C@@H](CCN)C(=O)N(C)[C@@H]1C(=O)N[C@@H](C)C(=O)N[C@H](C(=O)NCC#N)Cc2ccc(OCCN)c(c2)-c2cc1ccc2OCCN` (racemic) [Compound 206, rac-(8S,11S,14S)-3,18-bis(2-aminoethoxy)-N-(cyanomethyl)-11-methyl-14-[methyl-[rac-(2S)-4-amino-2-[[6-(4-tert-butylphenyl)-2-methyl-pyridine-3-carbonyl]amino]butanoyl]amino]-10,13-dioxo-9,12-diazatricyclo[13.3.1.12,6]icosa-1(18),2(20),3,5,15(19),16-hexaene-8-carboxamide]: the MIC came to 0.025 µM in assay [1] (Table 6) and 0.13 µM in assay [2] (setting [3]).

On to `CCCCc1ccc(-c2cc(C)c(C(=O)N[C@@H](CCN)C(=O)N(C)[C@@H]3C(=O)N[C@@H](C)C(=O)N[C@H](C(=O)NCC#N)Cc4ccc(OCCN)c(c4)-c4cc3ccc4OCCN)c(C)n2)cc1` (racemic) [Compound 366, rac-(8S,11S,14S)-3,18-bis(2-aminoethoxy)-N-(cyanomethyl)-11-methyl-14-[methyl-[rac-(2S)-4-amino-2-[[6-(4-butylphenyl)-2,4-dimethyl-pyridine-3-carbonyl]amino]butanoyl]amino]-10,13-dioxo-9,12-diazatricyclo[13.3.1.12,6]icosa-1(18),2(20),3,5,15(19),16-hexaene-8-carboxamide], for which the figures for the minimum inhibitory concentration (MIC) in assay [1] (Table 6) and in assay [2] (setting [3]) were 0.016 µM and 0.13 µM, respectively.

`Cc1nc(-c2ccc(OCCC(C)(C)C)cc2)nc(C)c1C(=O)N[C@@H](CCN)C(=O)N(C)[C@@H]1C(=O)N[C@@H](C)C(=O)N[C@H](C(=O)NCC#N)Cc2ccc(OCCN)c(c2)-c2cc1ccc2OCCN` (racemic) [Compound 338, rac-(8S,11S,14S)-3,18-bis(2-aminoethoxy)-N-(cyanomethyl)-11-methyl-14-[methyl-[rac-(2S)-4-amino-2-[[2-[4-(3,3-dimethylbutoxy)phenyl]-4,6-dimethyl-pyrimidine-5-carbonyl]amino]butanoyl]amino]-10,13-dioxo-9,12-diazatricyclo[13.3.1.12,6]icosa-1(18),2(20),3,5,15(19),16-hexaene-8-carboxamide]: the MIC stood at 0.012 µM in assay [1] (Table 6) and 0.13 µM in assay [2] (setting [3]).

In the case of `Cc1nc(-c2cnc(-c3ccc(C(C)(C)C)cc3)nc2)ncc1C(=O)N[C@@H](CCN)C(=O)N(C)[C@@H]1C(=O)N[C@@H](C)C(=O)N[C@H](C(=O)NCC#N)Cc2ccc(OCCN)c(c2)-c2cc1ccc2OCCN` (racemic) [Compound 232, rac-(8S,11S,14S)-3,18-bis(2-aminoethoxy)-N-(cyanomethyl)-11-methyl-14-[methyl-[rac-(2S)-4-amino-2-[[2-[2-(4-tert-butylphenyl)pyrimidin-5-yl]-4-methyl-pyrimidine-5-carbonyl]amino]butanoyl]amino]-10,13-dioxo-9,12-diazatricyclo[13.3.1.12,6]icosa-1(18),2(20),3,5,15(19),16-hexaene-8-carboxamide], the MIC was determined as 0.015 µM in assay [1] (Table 6) and 0.16 µM in assay [2] (setting [3]).

Take `Cc1nc(-c2ccc(OC(C)C)cc2)ncc1C(=O)N[C@@H](CCN)C(=O)N(C)[C@@H]1C(=O)N[C@@H](C)C(=O)N[C@H](C(=O)NCC#N)Cc2ccc(OCCN)c(c2)-c2cc1ccc2OCCN` (racemic) [Compound 246, rac-(8S,11S,14S)-3,18-bis(2-aminoethoxy)-N-(cyanomethyl)-11-methyl-14-[methyl-[rac-(2S)-4-amino-2-[[2-(4-isopropoxyphenyl)-4-methyl-pyrimidine-5-carbonyl]amino]butanoyl]amino]-10,13-dioxo-9,12-diazatricyclo[13.3.1.12,6]icosa-1(18),2(20),3,5,15(19),16-hexaene-8-carboxamide]: the MIC in assay [1] (Table 6) was determined as 0.067 µM; in assay [2] (setting [3]), 0.4 µM.

With `COC(C)(C)c1ccc(-c2nc(C)c(C(=O)N[C@@H](CCN)C(=O)N(C)[C@@H]3C(=O)N[C@@H](C)C(=O)N[C@H](C(=O)NCC#N)Cc4ccc(OCCN)c(c4)-c4cc3ccc4OCCN)c(C)n2)cc1` (racemic) [Compound 267, rac-(8S,11S,14S)-3,18-bis(2-aminoethoxy)-N-(cyanomethyl)-11-methyl-14-[methyl-[rac-(2S)-4-amino-2-[[2-[4-(1-methoxy-1-methyl-ethyl)phenyl]-4,6-dimethyl-pyrimidine-5-carbonyl]amino]butanoyl]amino]-10,13-dioxo-9,12-diazatricyclo[13.3.1.12,6]icosa-1(18),2(20),3,5,15(19),16-hexaene-8-carboxamide], the MIC in assay [1] (Table 6) is 0.39 µM; in assay [2] (setting [3]) it was 1 µM.

As for `CCC(CC)Cc1ccc(-c2nc(C)c(C(=O)N[C@@H](CCN)C(=O)N(C)[C@@H]3C(=O)N[C@@H](C)C(=O)N[C@H](C(=O)NCC#N)Cc4ccc(OCCN)c(c4)-c4cc3ccc4OCCN)c(C)n2)cc1` (racemic) [Compound 277, rac-(8S,11S,14S)-3,18-bis(2-aminoethoxy)-N-(cyanomethyl)-11-methyl-14-[methyl-[rac-(2S)-4-amino-2-[[2-[4-(2-ethylbutyl)phenyl]-4,6-dimethyl-pyrimidine-5-carbonyl]amino]butanoyl]amino]-10,13-dioxo-9,12-diazatricyclo[13.3.1.12,6]icosa-1(18),2(20),3,5,15(19),16-hexaene-8-carboxamide], the MIC in assay [1] (Table 6) was 0.016 µM; in assay [2] (setting [3]) it was 0.13 µM.

In the case of `Cc1nc(-c2ccc3c(c2)CCOC3(C)C)nc(C)c1C(=O)N[C@@H](CCN)C(=O)N(C)[C@@H]1C(=O)N[C@@H](C)C(=O)N[C@H](C(=O)NCC#N)Cc2ccc(OCCN)c(c2)-c2cc1ccc2OCCN` (racemic) [Compound 290, rac-(8S,11S,14S)-3,18-bis(2-aminoethoxy)-N-(cyanomethyl)-11-methyl-14-[methyl-[rac-(2S)-4-amino-2-[[2-(1,1-dimethylisochroman-6-yl)-4,6-dimethyl-pyrimidine-5-carbonyl]amino]butanoyl]amino]-10,13-dioxo-9,12-diazatricyclo[13.3.1.12,6]icosa-1(18),2(20),3,5,15(19),16-hexaene-8-carboxamide], the MIC was 0.19 µM in assay [1] (Table 6) and 0.75 µM in assay [2] (setting [3]).
